This note sets out measurements from PubChem BioAssay (NCI).

Among the test systems are SF-295 CNS; NCI/ADR-RES ovarian; BT-549 breast; UACC-257 melanoma; CCRF-CEM leukemia; SW-620 colon; LOX IMVI melanoma; PC-3 prostate; SK-MEL-5 melanoma; SN12C renal.
What all share (experiment): NCI tumour cell line growth inhibition, 48 h

Molecules are shown by their SMILES.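 Grown in 96-well plates, cells were treated for 48 hours with each compound at five concentrations. Insufficient inhibition: endpoint recorded as highest concentration tested. At the GI50, growth is halved. TGI: total growth inhibition.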 Some results are limits rather than exact numbers.

`COc1cc2nc3cc([N+](=O)[O-])ccc3c(NCCNCC(C)(C)O)c2cc1OC`: the GI50 with SF-295 CNS is 0.517 µM; with NCI/ADR-RES ovarian, 5.68 µM; with BT-549 breast, 1.84 µM; in the assay on UACC-257 melanoma it was 1.94 µM; with CCRF-CEM leukemia it was 0.573 µM; in the assay with SW-620 colon, 0.54 µM. Moreover, the GI50 in the assay with LOX IMVI melanoma is 0.715 µM; with PC-3 prostate, 0.581 µM. Moreover, the TGI in the assay on SF-295 CNS is 3.13 µM; with NCI/ADR-RES ovarian, 20.5 µM; with BT-549 breast, 4.14 µM; in the assay on UACC-257 melanoma it was 4.19 µM; in the assay on CCRF-CEM leukemia, 5.13 µM; with SW-620 colon it was 4.07 µM. The TGI came to 2.51 µM in the assay with LOX IMVI melanoma and 2.47 µM in the assay on PC-3 prostate.

As to `O=C(CC(Cl)=C(Cl)Cl)c1cccc(Cl)c1Cl`, the GI50 with NCI/ADR-RES ovarian was 85.1 µM; in the assay with BT-549 breast, 70.6 µM; in the assay with SK-MEL-5 melanoma, > 100 µM; in the assay with UACC-257 melanoma, > 100 µM; in the assay on CCRF-CEM leukemia it was 46.6 µM; with SW-620 colon it was 88.7 µM. Besides, the GI50 in the assay with LOX IMVI melanoma is 38.1 µM; in the assay on SN12C renal, 46.9 µM; with PC-3 prostate it was 78.3 µM. The TGI with NCI/ADR-RES ovarian, with BT-549 breast, in the assay with SK-MEL-5 melanoma, with UACC-257 melanoma, in the assay with CCRF-CEM leukemia and with SW-620 colon was > 100 µM in each case. Further, the TGI in the assay on LOX IMVI melanoma, in the assay on SN12C renal and in the assay with PC-3 prostate was > 100 µM in each case.

For the molecule `CN1c2ccccc2N(C(=O)c2ccccc2)C(CC(=O)O)c2cccn21` (configuration not stated), the TGI in the assay on SF-295 CNS, in the assay on SK-MEL-5 melanoma, in the assay on UACC-257 melanoma, in the assay on CCRF-CEM leukemia, in the assay on SW-620 colon and in the assay on LOX IMVI melanoma was > 100 µM throughout. Further, the TGI in the assay on SN12C renal was > 100 µM.

As for `Cc1ccc(S(=O)(=O)NC(CN)C(=O)O)cc1` (configuration not stated), the TGI with SF-295 CNS, in the assay with NCI/ADR-RES ovarian, in the assay with BT-549 breast, in the assay on SK-MEL-5 melanoma, with UACC-257 melanoma and in the assay with SW-620 colon was > 100 µM throughout. The TGI in the assay with LOX IMVI melanoma and with PC-3 prostate was > 100 µM throughout.

For the molecule `Cc1c(/C=N/N(C)C)oc2c1cc(O)c1ncccc12`, the TGI in the assay on SF-295 CNS is 97.9 µM; with SK-MEL-5 melanoma, 39.3 µM; in the assay on UACC-257 melanoma, > 100 µM; in the assay on CCRF-CEM leukemia, 7.26 µM; in the assay on SW-620 colon, > 100 µM; in the assay on LOX IMVI melanoma, 45.2 µM. The same molecule registered a TGI in the assay on SN12C renal of 96.4 µM.

With `CC(C)(C)C(C#N)(C#N)c1ccc(C(C#N)(C#N)C(C)(C)C)nn1`, the TGI with SF-295 CNS, in the assay on SK-MEL-5 melanoma, with UACC-257 melanoma, in the assay with CCRF-CEM leukemia, with SW-620 colon and in the assay with LOX IMVI melanoma was > 100 µM throughout. Moreover, the TGI in the assay on SN12C renal is > 100 µM.

`CCCCCCCCCCCC[n+]1ccc2ccccc2c1`: the GI50 in the assay on SF-295 CNS was 0.882 µM; with NCI/ADR-RES ovarian, 9.37 µM; with BT-549 breast it was 0.907 µM; in the assay on SK-MEL-5 melanoma it was 0.317 µM; in the assay with UACC-257 melanoma, 0.405 µM; in the assay on CCRF-CEM leukemia it was 0.317 µM. Besides, the GI50 is 0.996 µM in the assay on SW-620 colon, 1.17 µM with SN12C renal and 0.219 µM in the assay with PC-3 prostate. Besides, the TGI was determined as 2.74 µM in the assay with SF-295 CNS; 35.5 µM with NCI/ADR-RES ovarian; 2.49 µM in the assay with BT-549 breast; 1.28 µM in the assay with SK-MEL-5 melanoma; 1.82 µM in the assay with UACC-257 melanoma; 2.09 µM in the assay on CCRF-CEM leukemia. Further, the TGI in the assay on SW-620 colon was 2.56 µM; with SN12C renal, 2.65 µM; with PC-3 prostate, 1.12 µM.

As to `O=C(COc1cccc(/C=C2\CSc3ccccc3C2=O)c1)Nc1nccs1`, the GI50 in the assay on SF-295 CNS was 2.09 µM; in the assay with NCI/ADR-RES ovarian, 3.2 µM; in the assay on SK-MEL-5 melanoma, 2.38 µM; in the assay on UACC-257 melanoma it was 3.02 µM; in the assay on CCRF-CEM leukemia it was 1.26 µM; in the assay on SW-620 colon, 1.95 µM. Besides, the GI50 with LOX IMVI melanoma was 1.58 µM; in the assay with SN12C renal, 1.76 µM; in the assay with PC-3 prostate it was 1.82 µM. Also, the TGI in the assay with SF-295 CNS is 3.59 µM; in the assay on NCI/ADR-RES ovarian it was 11 µM; in the assay with SK-MEL-5 melanoma, 15.5 µM; in the assay on UACC-257 melanoma it was 9.77 µM; with CCRF-CEM leukemia it was 4.06 µM; with SW-620 colon, 4.52 µM. The results for the TGI in the assay on LOX IMVI melanoma, in the assay on SN12C renal and with PC-3 prostate were 3.06 µM, 4.46 µM and 4.24 µM, respectively.

As to `CN(C)C(=S)SCC(=O)Nc1ccccc1`, the TGI in the assay with SF-295 CNS, in the assay with NCI/ADR-RES ovarian, with BT-549 breast, in the assay with SK-MEL-5 melanoma, with UACC-257 melanoma and in the assay with CCRF-CEM leukemia was > 100 µM in each case. In addition, the TGI in the assay on SW-620 colon, with LOX IMVI melanoma and with SN12C renal was > 100 µM throughout.

On to `C[C@]12CCC3[C@@H](CC[C@@H]4c5nonc5CC[C@]34C)C1CC[C@@H]2O` (some centres not stated), for which the TGI with SF-295 CNS is > 100 µM; with SK-MEL-5 melanoma it was 41 µM; with UACC-257 melanoma it was 46.9 µM; with CCRF-CEM leukemia, 54.8 µM; with SW-620 colon, > 100 µM; with LOX IMVI melanoma, 41.1 µM. Also, the TGI in the assay with SN12C renal stood at 53.2 µM.

On to `Brc1ccc2ns[s+]c2c1`, for which the TGI in the assay on SF-295 CNS was > 100 µM; in the assay on SK-MEL-5 melanoma it was > 46.7 µM; in the assay on UACC-257 melanoma, > 100 µM; with CCRF-CEM leukemia, > 100 µM; in the assay with SW-620 colon, > 100 µM; with LOX IMVI melanoma, > 100 µM. The TGI with SN12C renal was > 100 µM.

As for `O=S(=O)(c1cnccc1N1CCN(CCO)CC1)N1CCCC1`, the TGI with SF-295 CNS, with NCI/ADR-RES ovarian, with BT-549 breast, in the assay with SK-MEL-5 melanoma, with UACC-257 melanoma and with SW-620 colon was > 100 µM each time. The TGI in the assay with LOX IMVI melanoma, with SN12C renal and with PC-3 prostate was > 100 µM throughout.

Take `CC(=O)NC(CC(C)C)C(=O)NC(Cc1ccccc1)C(=S)N1CCCC1` (configuration not stated): the TGI in the assay on SF-295 CNS, with SK-MEL-5 melanoma, in the assay on UACC-257 melanoma, with CCRF-CEM leukemia, in the assay with SW-620 colon and with LOX IMVI melanoma was > 100 µM throughout. For the same molecule, the TGI in the assay on SN12C renal is > 100 µM.

As for `CN(C)CCNC(=O)c1cccc2c1Oc1c(cccc1[N+](=O)[O-])O2`, the TGI came to 5.09 µM in the assay on SF-295 CNS; 4.66 µM in the assay on BT-549 breast; 3.24 µM in the assay on SK-MEL-5 melanoma; 6.34 µM with UACC-257 melanoma; 16.4 µM with CCRF-CEM leukemia; 10.2 µM with SW-620 colon. For the same molecule, the TGI turned out to be 10.5 µM in the assay with LOX IMVI melanoma, 3.72 µM in the assay with SN12C renal and 12.5 µM with PC-3 prostate.

`CC(=O)OC1COC(n2c(=S)n(-c3ccccc3)c(=O)c3ccccc32)C(OC(C)=O)C1OC(C)=O` (configuration not stated): the TGI in the assay on SF-295 CNS was 85.7 µM; with SK-MEL-5 melanoma, > 100 µM; with UACC-257 melanoma it was > 100 µM; in the assay on CCRF-CEM leukemia it was > 100 µM; with SW-620 colon, > 100 µM; in the assay with LOX IMVI melanoma, > 100 µM. Further, the TGI in the assay on SN12C renal is > 100 µM.

Take `Nc1ncnc2c1ncn2C1OC(CO)C(O)C1N` (configuration not stated): the TGI in the assay on SF-295 CNS, in the assay on NCI/ADR-RES ovarian, with BT-549 breast, with SK-MEL-5 melanoma, with UACC-257 melanoma and in the assay on SW-620 colon was > 100 µM each time. The TGI in the assay on LOX IMVI melanoma, in the assay on SN12C renal and in the assay on PC-3 prostate was > 100 µM in each case.

As to `CC1=C(C(=O)Nc2cc(F)c(F)cc2F)C(c2ccc([N+](=O)[O-])cc2)C(C(=O)Nc2cc(F)c(F)cc2F)=C(C)N1`, the TGI with SF-295 CNS was > 100 µM; in the assay on SK-MEL-5 melanoma it was > 100 µM; in the assay with UACC-257 melanoma, > 100 µM; in the assay on CCRF-CEM leukemia it was 78.7 µM; in the assay with SW-620 colon it was > 100 µM; with LOX IMVI melanoma, > 100 µM. Besides, in the assay with SN12C renal, the TGI was > 100 µM.

Consider `CN(CCCNC(=O)CCOCCOCCOCCNC(=O)Cc1ccc2ccc3cccc4ccc1c2c34)CCCNc1cc(-c2ccc3ccccc3c2)nc2ccccc12`, for which the GI50 with SF-295 CNS was 1.57 µM; in the assay on NCI/ADR-RES ovarian it was 4.22 µM; in the assay on BT-549 breast it was 2.01 µM; in the assay with SK-MEL-5 melanoma, 0.541 µM; in the assay on UACC-257 melanoma it was 0.478 µM; in the assay on SW-620 colon, 0.247 µM. The GI50 in the assay on LOX IMVI melanoma is 0.176 µM; with SN12C renal it was 3.59 µM; in the assay on PC-3 prostate, 0.435 µM. Moreover, the TGI in the assay on SF-295 CNS is 3.75 µM; in the assay with NCI/ADR-RES ovarian, 10.6 µM; in the assay on BT-549 breast, 4.68 µM; with SK-MEL-5 melanoma, 1.01 µM; with UACC-257 melanoma, 0.908 µM; in the assay with SW-620 colon it was 0.654 µM. Moreover, the TGI was determined as 0.333 µM in the assay on LOX IMVI melanoma, 8.44 µM in the assay with SN12C renal and 0.988 µM in the assay on PC-3 prostate.

Consider `O=C1c2ccccc2C(=O)c2c(OCCOCCO)cccc21`, for which the TGI in the assay on SF-295 CNS, in the assay with NCI/ADR-RES ovarian, with BT-549 breast, with SK-MEL-5 melanoma, with UACC-257 melanoma and with SW-620 colon was > 100 µM throughout. The TGI in the assay with LOX IMVI melanoma is > 100 µM; with SN12C renal it was 8.08 µM; with PC-3 prostate, > 100 µM.
